Measurements published in article PMC6611809, “Actin stabilizing compounds show specific biological effects due to their binding mode” (Scientific Reports, 2019).

Target: T1, actin (F-actin) (Oryctolagus cuniculus, UniProt P68135)
T1 construct: gene ACTA1; Atto488-labeled F-actin from rabbit skeletal muscle
Assay: TIRF displacement of rhodamine-phalloidin from purified actin filaments; supported by pyrene, TIRF and FCS polymerization assays
Format: binding
Description: TIRF displacement of rhodamine-phalloidin from purified actin filaments; supported by pyrene, TIRF and FCS polymerization assays on actin (F-actin) | Rhodamine-labeled phalloidin could be displaced from actin filaments by MiuA in a concentration dependent manner

CO/C(=C1/NC(=O)C(Cc2ccc(O)c(Br)c2)N(C)C(=O)C(C)NC(=O)CCC/C=C(\C)CCC(C)OC1=O)c1ccccc1 (stereo not shown) [MiuA, Miuraenamide A]
IC50: ~5 nM
